Experimental data: ChEMBL document CHEMBL1201862, “PubChem BioAssay data set” (2004)
Activity calls are given as the source filed them.

What was measured:
[1] = molecular target: Potassium voltage-gated channel subfamily KQT member 2 (Rattus norvegicus, UniProt O88943); experiment: retigabine-insensitive KCNQ2 potentiators, concentration-response, dose response, cell-based, retigabine-insensitive compounds (AID 2654); type: functional
[2] = molecular target: T1, Sentrin-specific protease 8 (Homo sapiens, UniProt Q96LD8); type: functional;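 further: luminescence read-out of SENP8 inhibition, dose-response confirmation following an ultra-high-throughput screen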
T1 sequence (Q96LD8 whole entry): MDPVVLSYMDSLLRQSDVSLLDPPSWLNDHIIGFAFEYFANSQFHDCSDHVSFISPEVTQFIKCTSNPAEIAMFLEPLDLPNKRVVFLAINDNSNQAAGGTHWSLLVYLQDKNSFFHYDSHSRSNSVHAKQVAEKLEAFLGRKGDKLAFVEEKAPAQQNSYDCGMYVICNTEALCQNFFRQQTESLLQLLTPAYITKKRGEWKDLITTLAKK

[3] = molecular target: T2, Sentrin-specific protease 7 (Homo sapiens, UniProt Q9BQF6); type: functional;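 further: Luminescence-based dose-response confirmation of ultra-high-throughput screening hits, measuring inhibition of SENP7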
T2 sequence (Q9BQF6 whole entry): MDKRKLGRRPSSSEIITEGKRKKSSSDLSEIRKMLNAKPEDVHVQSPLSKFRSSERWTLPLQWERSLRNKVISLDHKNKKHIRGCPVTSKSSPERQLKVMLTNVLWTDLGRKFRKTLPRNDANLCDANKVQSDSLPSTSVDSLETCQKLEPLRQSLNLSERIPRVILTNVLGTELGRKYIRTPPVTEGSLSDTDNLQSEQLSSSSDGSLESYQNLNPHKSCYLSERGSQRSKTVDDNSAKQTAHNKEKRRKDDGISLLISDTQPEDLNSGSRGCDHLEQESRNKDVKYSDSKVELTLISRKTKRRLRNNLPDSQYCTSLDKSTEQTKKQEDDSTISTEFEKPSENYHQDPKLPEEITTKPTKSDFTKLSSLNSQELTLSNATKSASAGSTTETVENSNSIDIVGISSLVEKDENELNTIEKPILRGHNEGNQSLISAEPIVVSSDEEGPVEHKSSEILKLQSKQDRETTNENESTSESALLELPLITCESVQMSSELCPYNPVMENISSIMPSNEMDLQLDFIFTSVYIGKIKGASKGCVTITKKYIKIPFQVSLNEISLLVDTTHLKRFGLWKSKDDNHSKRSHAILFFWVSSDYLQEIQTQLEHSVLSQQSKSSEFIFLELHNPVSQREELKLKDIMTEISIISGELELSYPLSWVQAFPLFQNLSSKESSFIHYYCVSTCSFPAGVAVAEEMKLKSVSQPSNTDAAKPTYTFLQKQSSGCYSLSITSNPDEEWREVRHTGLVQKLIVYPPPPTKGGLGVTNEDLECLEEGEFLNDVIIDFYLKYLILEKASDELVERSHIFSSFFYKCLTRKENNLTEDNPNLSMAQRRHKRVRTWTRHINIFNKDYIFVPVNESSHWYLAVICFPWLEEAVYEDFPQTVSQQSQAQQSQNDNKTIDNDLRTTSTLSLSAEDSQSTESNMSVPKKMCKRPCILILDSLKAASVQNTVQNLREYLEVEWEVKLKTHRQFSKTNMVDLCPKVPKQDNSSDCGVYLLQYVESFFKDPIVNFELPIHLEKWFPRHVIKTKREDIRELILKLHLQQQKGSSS

[4] = molecular target: T3, Sentrin-specific protease 6 (Homo sapiens, UniProt Q9GZR1); type: functional;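 further: Luminescence-based dose-response confirmatory assay of SENP6 inhibition, following up an ultra-high-throughput screen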
T3 sequence (Q9GZR1 whole entry): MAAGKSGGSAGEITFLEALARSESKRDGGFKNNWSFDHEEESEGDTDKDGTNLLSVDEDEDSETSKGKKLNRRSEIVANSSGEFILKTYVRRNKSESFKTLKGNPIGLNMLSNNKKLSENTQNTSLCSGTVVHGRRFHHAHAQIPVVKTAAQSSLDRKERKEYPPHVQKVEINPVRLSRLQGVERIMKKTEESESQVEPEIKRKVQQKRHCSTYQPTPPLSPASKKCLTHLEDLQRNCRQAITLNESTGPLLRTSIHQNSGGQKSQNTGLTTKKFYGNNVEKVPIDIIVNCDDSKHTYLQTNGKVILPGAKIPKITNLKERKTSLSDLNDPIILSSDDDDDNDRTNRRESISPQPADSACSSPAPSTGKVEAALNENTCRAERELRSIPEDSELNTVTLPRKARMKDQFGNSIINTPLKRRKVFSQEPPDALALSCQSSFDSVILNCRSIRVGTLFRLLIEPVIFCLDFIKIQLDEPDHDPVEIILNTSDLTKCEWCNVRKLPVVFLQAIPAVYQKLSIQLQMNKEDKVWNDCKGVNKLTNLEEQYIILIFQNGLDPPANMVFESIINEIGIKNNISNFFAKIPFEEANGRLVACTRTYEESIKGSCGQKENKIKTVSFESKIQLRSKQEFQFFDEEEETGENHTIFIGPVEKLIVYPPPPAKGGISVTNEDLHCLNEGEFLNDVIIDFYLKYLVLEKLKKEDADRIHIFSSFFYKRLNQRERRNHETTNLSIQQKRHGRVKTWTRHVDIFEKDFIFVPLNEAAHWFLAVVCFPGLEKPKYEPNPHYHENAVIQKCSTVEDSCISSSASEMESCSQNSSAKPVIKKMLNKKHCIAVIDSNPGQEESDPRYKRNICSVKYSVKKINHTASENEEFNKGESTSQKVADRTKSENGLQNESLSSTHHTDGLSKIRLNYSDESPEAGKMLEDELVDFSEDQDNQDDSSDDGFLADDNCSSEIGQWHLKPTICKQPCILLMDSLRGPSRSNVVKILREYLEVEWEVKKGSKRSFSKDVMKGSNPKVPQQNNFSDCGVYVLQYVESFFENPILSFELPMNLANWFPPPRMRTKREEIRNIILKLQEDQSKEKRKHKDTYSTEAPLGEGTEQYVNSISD

Caspase-3 = molecular target: T4, Caspase-3 (Homo sapiens, UniProt P42574); type: functional;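 further: Dose-response selectivity test against caspase-3 for candidate inhibitors of sentrin-specific proteases (SENPs)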
T4 sequence (P42574 whole entry): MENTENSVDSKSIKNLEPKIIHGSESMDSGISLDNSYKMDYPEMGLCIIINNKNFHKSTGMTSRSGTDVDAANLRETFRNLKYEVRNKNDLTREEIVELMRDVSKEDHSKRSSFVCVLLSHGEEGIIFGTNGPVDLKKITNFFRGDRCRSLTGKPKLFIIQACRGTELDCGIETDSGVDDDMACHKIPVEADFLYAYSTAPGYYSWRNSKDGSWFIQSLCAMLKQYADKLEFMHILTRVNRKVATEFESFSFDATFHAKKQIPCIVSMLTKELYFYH

[5] = growth suppression of PTEN-null colon cells, dose response, cell-based, HCT116 PTEN knockout (AID 1047); type: functional;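 further: HCT116 colon tumor cells with PTEN knocked out; cells exposed to compound for 60 hours before readout; potency for loss of cell viability measured by luminescence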
Vero [6] = experiment: cells; type: functional; settings: Chlorocebus sabaeus
[7] = molecular target: 1-acylglycerol-3-phosphate O-acyltransferase ABHD5/Perilipin-5 (Homo sapiens, UniProt Q00G26+Q8WTS1); experiment: Luminescence-based biochemical high throughput dose response assay for inhibitors of the interaction of the lipase co-activator protein, abhydrolase domain containing 5 (ABHD5) with perilipin-5 (MLDP; PLIN5) (2K validation set). [Related pubchem assays (depositor defined):AID493035, AID493241]
Perilipin-1/ABHD5 = Perilipin-1/ABHD5 (Homo sapiens, UniProt O60240+Q8WTS1); experiment: Luminescence-based biochemical high throughput dose response assay for inhibitors of the interaction of the lipase co-activator protein, abhydrolase domain containing 5 (ABHD5) with perilipin-1 (PLIN1) (2K validation set). [Related pubchem assays (depositor defined):AID493027, AID493057]
[8] = molecular target: T5, Heat shock factor protein 1 (Mus musculus, UniProt P38532); experiment: HSF1 potentiators in luciferase reporter cells, confirmation, cell-based, NIH3T3, luminescence, dose retest (AID 435004); type: functional;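 further: stress induced by proteasome inhibitor MG132 added 30 min after compound; luciferase reporter driven by HSF1 response element in NIH3T3 cells; actives raise luminescence as potentiators of the MG132 stress response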
T5 sequence (P38532 whole entry): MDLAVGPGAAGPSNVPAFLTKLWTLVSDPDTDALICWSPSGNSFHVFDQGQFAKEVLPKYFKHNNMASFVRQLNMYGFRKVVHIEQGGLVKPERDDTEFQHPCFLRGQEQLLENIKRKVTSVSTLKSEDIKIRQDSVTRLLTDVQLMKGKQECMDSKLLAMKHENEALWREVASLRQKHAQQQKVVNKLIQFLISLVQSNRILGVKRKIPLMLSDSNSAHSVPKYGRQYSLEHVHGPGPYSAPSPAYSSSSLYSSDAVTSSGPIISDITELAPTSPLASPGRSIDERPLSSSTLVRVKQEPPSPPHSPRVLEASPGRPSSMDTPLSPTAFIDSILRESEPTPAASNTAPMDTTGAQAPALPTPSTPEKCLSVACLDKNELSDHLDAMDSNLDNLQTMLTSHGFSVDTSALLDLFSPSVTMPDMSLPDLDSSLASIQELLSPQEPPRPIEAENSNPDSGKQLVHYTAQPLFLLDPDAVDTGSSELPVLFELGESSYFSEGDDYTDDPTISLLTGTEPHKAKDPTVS

[9] = growth suppression of beta-catenin-knockout colon cells, dose response, cell-based, HCT116, human colon tumor (AID 1045); type: functional;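 further: HCT116 colon tumor cells with beta catenin knocked out; cells exposed to compound for 60 hours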
[10] = molecular target: DNA dC->dU-editing enzyme APOBEC-3G (Homo sapiens, UniProt Q9HC16); experiment: Dose Response confirmation of small molecule APOBEC3G DNA Deaminase Inhibitors via a fluorescence-based single-stranded DNA deaminase assay. [Related pubchem assays (depositor defined):AID493012, AID493028]; type: functional
[11] = molecular target: DNA dC->dU-editing enzyme APOBEC-3A (Homo sapiens, UniProt P31941); experiment: APOBEC3A DNA deaminase inhibitors, dose response, biochemical (AID 504722); type: functional
Importin subunit alpha-1 = Importin subunit alpha-1 (Homo sapiens, UniProt P52292); experiment: YIC FRET probe signal interference, dose response, counter-screen for RanGTP-importin-beta inhibitor project, biochemical, dry powder samples (AID 493094); type: functional
Integrin alpha-L = Integrin alpha-L (Mus musculus, UniProt P24063); experiment: modulators of CD8 T cell-vesicle binding, dose response, powder samples, mouse 2C CD8+ cells (AID 504565); type: functional
[12] = tested on: Streptococcus sp. 'group A'; experiment: growth inhibition of control SK(-) GAS strain, dose response, counter-screen for streptokinase expression inhibitor project, luminescence, kanamycin, BacTiterGlo, confirmation (AID 1900); type: functional, organism-based
[13] = inhibitors of SNCA 5'UTR-driven reporter translation, confirmation, H4 neuroglioma cells, luminescence (AID 1988); type: functional, cell-based
[14] = molecular target: T6, Kappa-type opioid receptor (Homo sapiens, UniProt P41145); type: functional
[15] = HepG2 cell cytotoxicity, dose response, cytotoxicity control for non-replicating M. tuberculosis project (AID 489018); type: functional; settings: Mycobacterium tuberculosis
[16] = inhibitors of firefly luciferase expression or activity, dose response, H4 neuroglioma cells, luminescence (AID 1990); type: functional, cell-based
Vero [17] = experiment: cells; type: functional, cell-based; settings: Chlorocebus sabaeus
Nonstructural protein 1 = Nonstructural protein 1 (Influenza A virus, UniProt Q194T2); type: functional, Influenza A virus (A/California/07/2009(H1N1))
[18] = THP-1 cell cytotoxicity, dose response, cytotoxicity control for non-replicating M. tuberculosis project (AID 489025); type: functional
Beta-galactosidase [19] = molecular target: T7, Beta-galactosidase (Escherichia coli, UniProt Q8VNN2); experiment: PubChem AID 485352; type: functional
[20] = molecular target: T6, Kappa-type opioid receptor; type: functional; remark: listed apart in the source
[21] = inhibitors of SNCA 5'UTR-driven translation, confirmation, luminescence, H4 neuroglioblastoma cells, dose confirmation (AID 2454); type: functional, cell-based;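 further: H4 neuroglioblastoma cells carrying an alpha-synuclein 5'UTR luciferase reporter; potency for inhibition of the luciferase signal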
Beta-galactosidase [22] = molecular target: T7, Beta-galactosidase; type: functional
cells [23] = type: functional, cell-based
[24] = Vero E6 cell cytotoxicity, dose response, cytotoxicity control for non-replicating M. tuberculosis project, secondary assay (AID 492998); type: functional, VeroE6; settings: Vero C1008
cells [25] = type: functional
[26] = molecular target: Type-1 angiotensin II receptor (Homo sapiens, UniProt P30556); experiment: AT1 receptor antagonists, dose response, selectivity assay for APJ receptor antagonist project, cell-based, uHTS hits (AID 463214); type: functional;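 further: antagonist potency against angiotensin II stimulated AT1 response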
INS1 = experiment: beta cell apoptosis inhibitors, cytokine rescue, dose response, luminescence, retest (AID 449756); type: functional, cell-based; settings: Rattus norvegicus;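 further: cell death triggered by IL-1 beta plus TNF-alpha plus IFN-gamma mixture; protective hits raise ATP signal compared with cytokine alone wells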
Streptococcus = experiment: Group A Streptococcus viability loss, dose response, counter-screen for streptokinase expression inhibitor project, luminescence, BacTiterGlo (AID 1915); type: functional, organism-based;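 further: potency for reduction of bacterial viability or growth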
[27] = luciferase reporter signal reduction – luminescence, H4-C neuroglioblastoma cells, dose response (AID 2458); type: functional, cell-based;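 further: H4 neuroglioblastoma cells stably carrying a luciferase reporter gene fusion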
Beta-galactosidase [28] = molecular target: T7, Beta-galactosidase; experiment: Dose response counterscreen for EBI2 assay utilizing the enzyme, b-galactosidase.; type: functional

T7 sequence (Q8VNN2 whole entry): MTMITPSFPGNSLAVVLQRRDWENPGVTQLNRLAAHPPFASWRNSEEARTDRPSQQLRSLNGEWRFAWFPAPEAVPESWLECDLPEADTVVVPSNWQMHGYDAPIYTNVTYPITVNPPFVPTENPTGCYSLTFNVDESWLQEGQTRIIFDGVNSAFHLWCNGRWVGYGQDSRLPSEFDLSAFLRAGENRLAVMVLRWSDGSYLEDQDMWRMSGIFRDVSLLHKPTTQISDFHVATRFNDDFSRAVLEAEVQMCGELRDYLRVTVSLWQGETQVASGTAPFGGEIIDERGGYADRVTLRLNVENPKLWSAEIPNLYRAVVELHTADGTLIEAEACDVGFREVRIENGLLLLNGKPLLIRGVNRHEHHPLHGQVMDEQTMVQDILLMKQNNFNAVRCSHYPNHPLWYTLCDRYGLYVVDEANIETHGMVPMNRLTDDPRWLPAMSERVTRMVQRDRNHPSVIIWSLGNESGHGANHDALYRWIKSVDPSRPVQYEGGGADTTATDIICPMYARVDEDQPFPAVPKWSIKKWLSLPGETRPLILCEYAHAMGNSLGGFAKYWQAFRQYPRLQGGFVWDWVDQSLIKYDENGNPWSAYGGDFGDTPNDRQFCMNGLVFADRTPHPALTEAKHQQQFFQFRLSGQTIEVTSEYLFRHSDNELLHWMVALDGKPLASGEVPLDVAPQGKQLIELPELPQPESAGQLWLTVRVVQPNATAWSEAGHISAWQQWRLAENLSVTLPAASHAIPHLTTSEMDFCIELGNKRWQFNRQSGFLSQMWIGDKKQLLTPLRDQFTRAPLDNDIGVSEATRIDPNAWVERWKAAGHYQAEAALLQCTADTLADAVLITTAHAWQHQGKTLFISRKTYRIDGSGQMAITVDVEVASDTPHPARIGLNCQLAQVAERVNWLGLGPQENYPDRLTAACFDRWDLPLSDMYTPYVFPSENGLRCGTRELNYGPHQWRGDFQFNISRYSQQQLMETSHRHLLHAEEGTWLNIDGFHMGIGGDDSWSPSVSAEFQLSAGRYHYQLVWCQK
T6 sequence (P41145 whole entry): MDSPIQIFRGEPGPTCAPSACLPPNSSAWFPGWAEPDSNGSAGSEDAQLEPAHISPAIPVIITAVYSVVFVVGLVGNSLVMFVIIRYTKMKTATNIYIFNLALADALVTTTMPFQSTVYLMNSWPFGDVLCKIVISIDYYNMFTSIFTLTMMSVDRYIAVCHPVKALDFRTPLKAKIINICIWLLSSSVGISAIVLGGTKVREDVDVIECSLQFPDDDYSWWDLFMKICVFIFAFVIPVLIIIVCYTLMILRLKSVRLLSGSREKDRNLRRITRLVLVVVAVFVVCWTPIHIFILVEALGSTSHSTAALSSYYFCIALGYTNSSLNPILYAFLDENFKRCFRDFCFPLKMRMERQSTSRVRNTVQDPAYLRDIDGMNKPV
Sequence of DNA dC->dU-editing enzyme APOBEC-3G (Q9HC16 whole entry): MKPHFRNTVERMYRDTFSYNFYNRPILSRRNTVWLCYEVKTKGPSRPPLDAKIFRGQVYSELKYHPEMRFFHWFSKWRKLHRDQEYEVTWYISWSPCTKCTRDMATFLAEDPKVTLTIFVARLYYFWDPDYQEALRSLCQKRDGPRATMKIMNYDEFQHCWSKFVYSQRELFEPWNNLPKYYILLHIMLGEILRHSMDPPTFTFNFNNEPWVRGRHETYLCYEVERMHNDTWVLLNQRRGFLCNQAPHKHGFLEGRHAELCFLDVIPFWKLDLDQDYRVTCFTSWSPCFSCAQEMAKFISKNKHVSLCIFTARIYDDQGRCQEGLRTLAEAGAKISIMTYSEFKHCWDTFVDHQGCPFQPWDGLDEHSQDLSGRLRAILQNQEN
Sequence of Integrin alpha-L (P24063 whole entry): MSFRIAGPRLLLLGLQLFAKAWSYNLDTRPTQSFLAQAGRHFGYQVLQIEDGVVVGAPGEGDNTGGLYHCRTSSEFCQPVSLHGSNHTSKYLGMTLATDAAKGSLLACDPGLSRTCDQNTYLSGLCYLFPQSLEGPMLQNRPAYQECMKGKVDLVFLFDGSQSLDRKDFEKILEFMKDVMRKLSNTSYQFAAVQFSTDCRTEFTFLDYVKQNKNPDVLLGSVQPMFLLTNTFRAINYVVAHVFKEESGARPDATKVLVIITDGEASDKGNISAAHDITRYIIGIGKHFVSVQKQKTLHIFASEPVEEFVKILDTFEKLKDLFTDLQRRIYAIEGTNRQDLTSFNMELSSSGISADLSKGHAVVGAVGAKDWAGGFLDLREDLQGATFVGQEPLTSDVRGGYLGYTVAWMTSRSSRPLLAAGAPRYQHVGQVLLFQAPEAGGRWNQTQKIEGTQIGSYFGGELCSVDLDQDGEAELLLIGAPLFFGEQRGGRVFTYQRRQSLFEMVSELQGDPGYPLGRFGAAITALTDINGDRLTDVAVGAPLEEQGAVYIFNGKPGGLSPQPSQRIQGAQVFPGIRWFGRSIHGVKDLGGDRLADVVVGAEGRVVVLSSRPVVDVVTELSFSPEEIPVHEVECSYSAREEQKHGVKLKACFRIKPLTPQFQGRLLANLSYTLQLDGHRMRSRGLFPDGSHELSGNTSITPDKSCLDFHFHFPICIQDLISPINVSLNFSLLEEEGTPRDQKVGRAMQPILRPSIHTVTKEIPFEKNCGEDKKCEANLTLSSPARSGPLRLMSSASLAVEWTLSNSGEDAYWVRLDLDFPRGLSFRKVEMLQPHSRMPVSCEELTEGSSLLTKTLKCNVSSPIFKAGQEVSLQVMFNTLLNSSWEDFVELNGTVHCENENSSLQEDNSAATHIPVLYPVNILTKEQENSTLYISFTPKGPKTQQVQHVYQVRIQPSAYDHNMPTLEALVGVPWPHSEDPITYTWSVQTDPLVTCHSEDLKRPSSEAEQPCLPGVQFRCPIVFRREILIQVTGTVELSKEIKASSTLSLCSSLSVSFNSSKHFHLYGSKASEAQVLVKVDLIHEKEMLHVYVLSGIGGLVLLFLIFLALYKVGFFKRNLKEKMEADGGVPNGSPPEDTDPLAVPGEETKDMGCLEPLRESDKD
Sequence of Type-1 angiotensin II receptor (P30556 whole entry): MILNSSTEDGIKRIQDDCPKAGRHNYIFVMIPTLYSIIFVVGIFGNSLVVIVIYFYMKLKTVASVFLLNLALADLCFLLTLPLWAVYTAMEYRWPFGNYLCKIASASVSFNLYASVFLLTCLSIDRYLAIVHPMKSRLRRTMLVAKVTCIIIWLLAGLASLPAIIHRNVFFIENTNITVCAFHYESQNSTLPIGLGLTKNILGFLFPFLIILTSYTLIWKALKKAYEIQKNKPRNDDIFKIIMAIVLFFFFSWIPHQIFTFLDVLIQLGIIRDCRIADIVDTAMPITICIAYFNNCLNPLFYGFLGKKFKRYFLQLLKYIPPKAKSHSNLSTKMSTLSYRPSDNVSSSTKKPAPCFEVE
Sequence of 1-acylglycerol-3-phosphate O-acyltransferase ABHD5/Perilipin-5 (Q00G26 whole entry, the tested form may be a part): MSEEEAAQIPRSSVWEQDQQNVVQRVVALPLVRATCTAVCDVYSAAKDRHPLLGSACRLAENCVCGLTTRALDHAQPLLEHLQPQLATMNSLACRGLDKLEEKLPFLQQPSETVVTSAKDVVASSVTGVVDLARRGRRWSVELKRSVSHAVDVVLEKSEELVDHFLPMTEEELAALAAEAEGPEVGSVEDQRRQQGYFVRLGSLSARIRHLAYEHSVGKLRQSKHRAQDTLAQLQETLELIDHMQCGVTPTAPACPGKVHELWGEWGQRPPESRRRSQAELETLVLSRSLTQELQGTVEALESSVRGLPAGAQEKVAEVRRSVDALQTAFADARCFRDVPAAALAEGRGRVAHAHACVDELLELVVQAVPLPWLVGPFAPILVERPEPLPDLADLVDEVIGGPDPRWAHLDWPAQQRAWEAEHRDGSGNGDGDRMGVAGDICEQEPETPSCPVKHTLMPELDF
Sequence of 1-acylglycerol-3-phosphate O-acyltransferase ABHD5/Perilipin-5 (Q8WTS1 whole entry, the tested form may be a part): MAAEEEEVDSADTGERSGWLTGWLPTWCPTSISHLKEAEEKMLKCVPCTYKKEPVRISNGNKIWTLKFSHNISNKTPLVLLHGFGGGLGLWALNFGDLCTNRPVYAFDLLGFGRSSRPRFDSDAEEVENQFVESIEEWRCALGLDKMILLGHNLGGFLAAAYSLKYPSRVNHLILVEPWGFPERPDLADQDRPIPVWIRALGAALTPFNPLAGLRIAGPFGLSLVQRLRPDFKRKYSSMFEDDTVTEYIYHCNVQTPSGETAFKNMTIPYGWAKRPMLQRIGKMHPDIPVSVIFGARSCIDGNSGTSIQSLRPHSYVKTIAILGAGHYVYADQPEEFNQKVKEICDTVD
Sequence of Nonstructural protein 1 (Q194T2 whole entry): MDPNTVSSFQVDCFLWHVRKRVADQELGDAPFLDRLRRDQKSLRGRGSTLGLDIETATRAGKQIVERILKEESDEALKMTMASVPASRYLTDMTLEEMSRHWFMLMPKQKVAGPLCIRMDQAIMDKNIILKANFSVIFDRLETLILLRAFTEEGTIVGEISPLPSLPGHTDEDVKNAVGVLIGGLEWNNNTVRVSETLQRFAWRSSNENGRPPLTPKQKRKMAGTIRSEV
Sequence of Perilipin-1/ABHD5 (Q8WTS1 whole entry, the tested form may be a part): as the sequence (Q8WTS1 whole entry, the tested form may be a part) above
Sequence of Perilipin-1/ABHD5 (O60240 whole entry, the tested form may be a part): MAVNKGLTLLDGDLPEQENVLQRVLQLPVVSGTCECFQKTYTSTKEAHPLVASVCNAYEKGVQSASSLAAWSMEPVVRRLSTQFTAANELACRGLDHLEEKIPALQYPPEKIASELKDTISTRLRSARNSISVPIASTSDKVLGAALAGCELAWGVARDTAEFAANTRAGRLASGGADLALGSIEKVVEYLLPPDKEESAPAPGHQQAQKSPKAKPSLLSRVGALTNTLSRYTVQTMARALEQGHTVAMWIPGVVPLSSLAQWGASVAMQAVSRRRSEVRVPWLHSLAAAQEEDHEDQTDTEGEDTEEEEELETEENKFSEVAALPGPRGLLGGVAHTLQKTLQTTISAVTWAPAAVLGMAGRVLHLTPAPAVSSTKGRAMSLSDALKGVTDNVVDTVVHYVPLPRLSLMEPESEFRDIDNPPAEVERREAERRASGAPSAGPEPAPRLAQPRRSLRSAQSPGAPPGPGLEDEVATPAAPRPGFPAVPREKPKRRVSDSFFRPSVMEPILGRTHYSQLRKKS

## CCCCc1ccc(NC(=O)Nc2cccnc2)cc1
[1]
  EC50: 13.7 µM (active)
[2]
  IC50: 16.8 µM (active)
[3]
  IC50: 5.08 µM (active)
[4]
  IC50: 14.1 µM (active)
Caspase-3
  IC50: 22.7 µM (active)

## O=C(/C=C/Sc1ccccc1)c1ccccc1
[5]
  EC50: 27.7 µM (active)
Vero [6]
  CC50: 23.6 µM (active)
[7]
  IC50: 3.91 µM (active)
Perilipin-1/ABHD5
  IC50: 3.91 µM (active)
[8]
  EC50: 5.83 µM (active)
[9]
  EC50: 28.4 µM (active)

## CCc1c(C)nc(S)c(C#N)c1C
[10]
  IC50: 6 µM (active)
[11]
  IC50: > 100 µM (inactive)

## CSc1ccc(/C=C(/Sc2nnc(-c3ccccc3)o2)C(=O)O)cc1
Importin subunit alpha-1
  AC50: 116 µM (active)

## O=C(c1ccc(N2C(=O)C3CC=C(Cl)CC3C2=O)cc1)N1CCCCC1 (stereo unspecified)
Integrin alpha-L
  EC50: 9.02 µM (active)

## C/C(=N\NC(=O)c1cccc(Br)c1)c1ccccn1
[12]
  EC50: 1.29 µM (active)
[13]
  EC50: < 0.1 µM (active)
[14]
  IC50: > 32 µM
[15]
  CC50: 2.71 µM (active)
[16]
  EC50: 30 µM (active)
Vero [17]
  IC50: > 25 µM (active)
Nonstructural protein 1
  IC50: 1.67 µM (active)
Vero [6]
  CC50: 1.78 µM (active)
[18]
  CC50: 0.584 µM (active)
Beta-galactosidase [19]
  EC50: > 40 µM (inactive)
[20]
  IC50: 1.82 µM (active)
[21]
  EC50: 0.895 µM (active)
Beta-galactosidase [22]
  EC50: > 31.5 µM (inactive)
Cells [23]
  EC50: 0.966 µM (active)
[24]
  CC50: 1.03 µM (active)
Cells [25]
  IC50: 0.57 µM (active)
[26]
  IC50: 3.51 µM (active)
INS1
  AC50: 0.315 µM (active)
Streptococcus
  EC50: 4.74 µM (active)
[27]
  EC50: 0.714 µM (active)
Beta-galactosidase [28]
  IC50: > 80 µM (inactive)
